Test results reported in patent publication US20240409585A1, “MACROCYCLIC IMMUNOMODULATORS” (priority 2021, published 2024).
Numbered stars: 1 amine (or outer) side, 2 acyl side, 3 side chain; on linkers, the order of the positions; unused ones are H or OH. Bridge positions count the residues as written; N and C are the ends. Square brackets hold non-standard residues; d marks the D form. Peptide text beside a SMILES is read from it. * marks the point of attachment. ξ: configuration not given here. Phe(4-COOH) = N[C@@H](Cc1ccc(C(=O)O)cc1)C(=O)O; X23 = O=C([C@H](Cc1cc2ccccc2cn1)N[*:1])[*:2]; Bip = N[C@@H](Cc1ccc(-c2ccccc2)cc1)C(=O)O; Phe(3-CN) = N#Cc1cccc(C[C@H](N)C(=O)O)c1; Phe(3-Me) = Cc1cccc(C[C@H](N)C(=O)O)c1; Bta = N[C@@H](Cc1csc2ccccc12)C(=O)O; Val(3-OH) = CC(C)(O)[C@H](N)C(=O)O; 4Pal = N[C@@H](Cc1ccncc1)C(=O)O; Cha = N[C@@H](CC1CCCCC1)C(=O)O; Ile(3ξ) = CCC(C)[C@H](N)C(=O)O; Thr(3ξ) = CC(O)[C@H](N)C(=O)O; Carboxymethyl = O=C(O)C*; NMeA = CN[C@@H](C)C(=O)O; Orn = NCCC[C@H](N)C(=O)O; Dab = NCC[C@H](N)C(=O)O; Dap = NC[C@H](N)C(=O)O

Molecular target: T1, PE-labeled human PD-L1-Ig binding to Jurkat cell line over-expressing human PD-1 (Jurkat-PD-1) (Homo sapiens, UniProt Q15116)
T1 construct: expressed in transfected cells; host or cells: Jurkat
T1 sequence (Q15116 25-288): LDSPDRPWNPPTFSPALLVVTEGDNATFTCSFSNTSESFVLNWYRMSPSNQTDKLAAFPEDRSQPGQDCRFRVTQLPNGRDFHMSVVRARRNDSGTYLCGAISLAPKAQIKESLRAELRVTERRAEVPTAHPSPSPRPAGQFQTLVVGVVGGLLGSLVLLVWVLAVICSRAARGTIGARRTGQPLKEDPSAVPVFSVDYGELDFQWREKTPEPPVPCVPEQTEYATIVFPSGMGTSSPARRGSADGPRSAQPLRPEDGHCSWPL
Test: Jurkat-PD-1 Cell Binding High-Content Screening Assay (CBA): Method 1
Conditions: Jurkat-hPD-1 cells, PE-labeled PD-L1-Ig 20 nM final; read-out: Jurkat HPDL1 PD1 IC50 (uM) (Method 1)

SMILES	IC50
CC(C)C[C@@H]1NC(=O)[C@H](CCCN)NC(=O)[C@H](Cc2csc3ccccc23)NC(=O)[C@H](C)N(C)C(=O)[C@H](CCCNC(=N)N)NC(=O)[C@H](Cc2ccc(-c3ccccc3)cc2)NC(=O)[C@H](C(C)C)NC(=O)[C@H](Cc2c[nH]c3ccccc23)NC(=O)[C@H](CC(=O)O)NC(=O)[C@H](Cc2ccc(O)cc2)NC(=O)[C@H](Cc2ccccc2)NC(=O)CSC[C@@H](C(=O)N[C@@H](C)C(N)=O)NC(=O)[C@H]([C@@H](C)O)NC(=O)[C@H](C(C)C)NC1=O [Compound 1120] ({CH2CO}-FYDWV[Bip]R[NMeA][Bta][Orn]LVTCA-NH2; thioether N-14)	0.27 µM
CC(C)C[C@@H]1NC(=O)[C@H](Cc2c[nH]c3ccccc23)NC(=O)[C@H](CC(=O)O)NC(=O)[C@H](Cc2ccc(O)cc2)NC(=O)[C@H](Cc2ccccc2)NC(=O)CSC[C@@H](C(=O)NCC(N)=O)NC(=O)[C@H](CO)NC(=O)[C@H](C(C)C)NC(=O)[C@H](CC(C)C)NC(=O)[C@H](CC(=O)O)NC(=O)[C@H](CCCCN)NC(=O)[C@H](C)N(C)C(=O)[C@H](C(C)C)NC(=O)[C@H](Cc2ccc(-c3ccccc3)cc2)NC1=O [Compound 1826] ({CH2CO}-FYDWL[Bip]V[NMeA]KDLVSCG-NH2; thioether N-14)	0.76 µM
CCC(C)[C@@H]1NC(=O)[C@H](Cc2ccc(-c3ccccc3)cc2)NC(=O)[C@H](C(C)C)NC(=O)[C@H](Cc2c[nH]c3ccccc23)NC(=O)[C@H](CC(=O)O)NC(=O)[C@H](Cc2ccc(OCC(=O)O)cc2)NC(=O)[C@H](C(C)O)NC(=O)CSC[C@@H](C(N)=O)NC(=O)[C@H](CO)NC(=O)[C@H](C(C)C)NC(=O)[C@H](CC2CCCCC2)NC(=O)[C@H](CCN)NC(=O)[C@@H](CC(C)C)NC(=O)[C@H](C)N(C)C1=O (stereo partly drawn) [Compound 2251] ({CH2CO}-[Thr(3ξ)]Y(Carboxymethyl)DWV[Bip][Ile(3ξ)][NMeA][dL][Dab][Cha]VSC-NH2; thioether N-14)	0.02 µM
CC(C)C[C@@H]1NC(=O)[C@H](CCCNC(=N)N)NC(=O)[C@@H](CC(C)C)NC(=O)[C@H](C)N(C)C(=O)[C@H](CCC(=O)O)NC(=O)[C@H](Cc2ccc(-c3ccccc3)cc2)NC(=O)[C@H](C(C)C)NC(=O)[C@H](Cc2c[nH]c3ccccc23)NC(=O)[C@H](CC(=O)O)NC(=O)[C@H](Cc2ccc(O)cc2)NC(=O)[C@H](CC(N)=O)NC(=O)CSC[C@@H](C(=O)N[C@@H](C)C(N)=O)NC(=O)[C@H](CCCN)NC(=O)[C@H](C(C)C)NC1=O [Compound 1250] ({CH2CO}-NYDWV[Bip]E[NMeA][dL]RLV[Orn]CA-NH2; thioether N-14)	0.07 µM
CCC(C)[C@@H]1NC(=O)[C@H](Cc2ccc(-c3ccccc3)cc2)NC(=O)[C@H](C(C)C)NC(=O)[C@H](Cc2c[nH]c3ccccc23)NC(=O)[C@H](CC(=O)O)NC(=O)[C@H](Cc2ccc(O)cc2)NC(=O)[C@H](Cc2cc3ccccc3cn2)NC(=O)CSC[C@@H](C(=O)N[C@@H](C)C(N)=O)NC(=O)[C@H](C(C)O)NC(=O)[C@H](C(C)C)NC(=O)[C@H](CC2CCCCC2)NC(=O)[C@H](CCN)NC(=O)[C@@H](CC(C)C)NC(=O)[C@H](C)N(C)C1=O (stereo partly drawn) [Compound 2044] ({CH2CO}-[X23]YDWV[Bip][Ile(3ξ)][NMeA][dL][Dab][Cha]V[Thr(3ξ)]CA-NH2; thioether N-14)	0.02 µM
CC(=O)NCCCC[C@@H]1NC(=O)[C@H](Cc2ccc(-c3ccccc3)cc2)NC(=O)[C@H](Cc2ccc(O)cc2)NC(=O)[C@H](Cc2cccc(C)c2)NC(=O)[C@H](CC(=O)O)NC(=O)[C@H](Cc2ccc(OCC(=O)O)cc2)NC(=O)[C@H](C(C)O)NC(=O)CSC[C@@H](C(=O)N[C@H](CC(N)=O)C(N)=O)NC(=O)[C@H](C(C)O)NC(=O)[C@H](C(C)C)NC(=O)[C@H](CC2CCCCC2)NC(=O)[C@H](CCN)NC(=O)[C@@H](CC(C)C)NC(=O)[C@H](C)N(C)C1=O (stereo partly drawn) [Compound 2118] ({CH2CO}-[Thr(3ξ)]Y(Carboxymethyl)D[Phe(3-Me)]Y[Bip]K(Ac)[NMeA][dL][Dab][Cha]V[Thr(3ξ)]C[dN]-NH2; thioether N-14)	0.05 µM
Cc1cccc(C[C@@H]2NC(=O)[C@H](CC(=O)O)NC(=O)[C@H](Cc3ccc(C(=O)O)cc3)NC(=O)[C@H](Cc3ccc(OCC(=O)O)cc3)NC(=O)CSC[C@@H](C(N)=O)NC(=O)[C@H]([C@@H](C)O)NC(=O)[C@H](C(C)C)NC(=O)[C@H](CC3CCCCC3)NC(=O)[C@H](CC(N)=O)NC(=O)[C@@H](CC(C)C)NC(=O)[C@H](C)N(C)C(=O)[C@H](C(C)C)NC(=O)[C@H](Cc3ccc(-c4ccccc4)cc3)NC(=O)[C@H](CC(C)C)NC2=O)c1 [Compound 1683] ({CH2CO}-Y(Carboxymethyl)[Phe(4-COOH)]D[Phe(3-Me)]L[Bip]V[NMeA][dL]N[Cha]VTC-NH2; thioether N-14)	0.03 µM
CC[C@H](C)[C@@H]1NC(=O)[C@H](Cc2ccc(-c3ccccc3)cc2)NC(=O)[C@H](C(C)(C)O)NC(=O)[C@H](Cc2cccc(C)c2)NC(=O)[C@H](CC(=O)O)NC(=O)[C@H](Cc2ccc(O)cc2)NC(=O)[C@H](CC(N)=O)NC(=O)CSC[C@@H](C(=O)N[C@@H](CCN)C(N)=O)NC(=O)[C@H](CCC(=O)O)NC(=O)[C@H](C(C)(C)O)NC(=O)[C@H](CC2CCCCC2)NC(=O)[C@H](CCN)NC(=O)[C@@H](CC(C)C)NC(=O)[C@H](C)N(C)C1=O [Compound 1699] ({CH2CO}-NYD[Phe(3-Me)][Val(3-OH)][Bip]I[NMeA][dL][Dab][Cha][Val(3-OH)]EC[Dab]-NH2; thioether N-14)	0.04 µM
CC(C)C[C@@H]1NC(=O)[C@H](Cc2c[nH]c3ccccc23)NC(=O)[C@H](CC(=O)O)NC(=O)[C@H](Cc2ccc(O)cc2)NC(=O)[C@H](Cc2ccccc2)NC(=O)CSC[C@@H](C(=O)N[C@@H](C)C(N)=O)NC(=O)[C@H](CO)NC(=O)[C@H](C(C)C)NC(=O)[C@H](CC(C)C)NC(=O)[C@H](CCC(=O)O)NC(=O)[C@@H](C)NC(=O)[C@H](C)N(C)C(=O)[C@H](CCC(=O)O)NC(=O)[C@H](Cc2ccc(-c3ccccc3)cc2)NC1=O [Compound 1792] ({CH2CO}-FYDWL[Bip]E[NMeA][dA]ELVSCA-NH2; thioether N-14)	0.13 µM

Second part, the molecule after the results:

IC50	SMILES
0.02 µM	CCC(C)[C@@H]1NC(=O)[C@H](Cc2ccc(-c3ccccc3)cc2)NC(=O)[C@H](C(C)C)NC(=O)[C@H](Cc2c[nH]c3ccccc23)NC(=O)[C@H](CC(=O)O)NC(=O)[C@H](Cc2ccc(O)cc2)NC(=O)[C@H](Cc2ccncc2)NC(=O)CSC[C@@H](C(=O)N[C@@H](CN)C(=O)O)NC(=O)[C@H](C(C)O)NC(=O)[C@H](C(C)C)NC(=O)[C@H](CC2CCCCC2)NC(=O)[C@H](CC(N)=O)NC(=O)[C@@H](CC(C)C)NC(=O)[C@H](C)N(C)C1=O (stereo partly drawn) [Compound 2210] ({CH2CO}-[4Pal]YDWV[Bip][Ile(3ξ)][NMeA][dL]N[Cha]V[Thr(3ξ)]C[Dap]-OH; thioether N-14)
0.04 µM	CCC(C)[C@@H]1NC(=O)[C@H](Cc2ccc(-c3ccccc3)cc2)NC(=O)[C@H](C(C)C)NC(=O)[C@H](Cc2c[nH]c3ccccc23)NC(=O)[C@H](CC(=O)O)NC(=O)[C@H](Cc2ccc(O)cc2)NC(=O)[C@H](Cc2ccncc2)NC(=O)CSC[C@@H](C(=O)N[C@@H](CN)C(N)=O)NC(=O)[C@H](C(C)O)NC(=O)[C@H](C(C)C)NC(=O)[C@H](CC2CCCCC2)NC(=O)[C@H](CC(N)=O)NC(=O)[C@@H](CC(C)C)NC(=O)[C@H](C)N(C)C1=O (stereo partly drawn) [Compound 2157] ({CH2CO}-[4Pal]YDWV[Bip][Ile(3ξ)][NMeA][dL]N[Cha]V[Thr(3ξ)]C[Dap]-NH2; thioether N-14)
0.06 µM	CC(C)C[C@@H]1NC(=O)[C@H](CCCNC(=N)N)NC(=O)[C@@H](CC(C)C)NC(=O)[C@H](C)N(C)C(=O)[C@H](CCCN)NC(=O)[C@H](Cc2ccc(-c3ccccc3)cc2)NC(=O)[C@H](C(C)C)NC(=O)[C@H](Cc2c[nH]c3ccccc23)NC(=O)[C@H](CC(=O)O)NC(=O)[C@H](Cc2ccc(O)cc2)NC(=O)[C@H](Cc2ccccc2)NC(=O)CSC[C@@H](C(=O)N[C@@H](C)C(N)=O)NC(=O)[C@H]([C@@H](C)O)NC(=O)[C@H](C(C)C)NC1=O [Compound 1123] ({CH2CO}-FYDWV[Bip][Orn][NMeA][dL]RLVTCA-NH2; thioether N-14)
0.06 µM	CC(C)C[C@@H]1NC(=O)[C@H](CCN)NC(=O)[C@@H](CC(C)C)NC(=O)[C@H](C)N(C)C(=O)[C@H](C(C)C)NC(=O)[C@H](Cc2ccc(-c3ccccc3)cc2)NC(=O)[C@H](C(C)C)NC(=O)[C@H](Cc2c[nH]c3ccccc23)NC(=O)[C@H](CC(=O)O)NC(=O)[C@H](Cc2cccc(C#N)c2)NC(=O)[C@H](CN)NC(=O)CSC[C@@H](C(=O)N[C@@H](C)C(N)=O)NC(=O)[C@H]([C@@H](C)O)NC(=O)[C@H](C(C)C)NC1=O [Compound 1436] ({CH2CO}-[Dap][Phe(3-CN)]DWV[Bip]V[NMeA][dL][Dab]LVTCA-NH2; thioether N-14)
0.5 µM	Cc1cccc(C[C@@H]2NC(=O)[C@H](CC(=O)O)NC(=O)[C@H](Cc3ccc(C(=O)O)cc3)NC(=O)[C@H](C(C)O)NC(=O)CSC[C@@H](C(=O)N[C@H](C(N)=O)C(C)(C)O)NC(=O)[C@H](CO)NC(=O)[C@H](C(C)(C)O)NC(=O)[C@H](CC3CCCCC3)NC(=O)[C@H](CCN)NC(=O)[C@@H](CC(C)C)NC(=O)[C@H](C)N(C)C(=O)[C@H](Cc3ccc(OCC(=O)O)cc3)NC(=O)[C@H](Cc3ccc(-c4ccccc4)cc3)NC(=O)[C@H](Cc3ccc(OCC(=O)O)cc3)NC2=O)c1 (stereo partly drawn) [Compound 2202] ({CH2CO}-[Thr(3ξ)][Phe(4-COOH)]D[Phe(3-Me)]Y(Carboxymethyl)[Bip]Y(Carboxymethyl)[NMeA][dL][Dab][Cha][Val(3-OH)]SC[Val(3-OH)]-NH2; thioether N-14)
0.02 µM	CC(C)C[C@@H]1NC(=O)[C@H](CCCN)NC(=O)[C@@H](CC(C)C)NC(=O)[C@H](C)N(C)C(=O)[C@H](CCCN)NC(=O)[C@H](Cc2ccc(-c3ccccc3)cc2)NC(=O)[C@H](C(C)C)NC(=O)[C@H](Cc2c[nH]c3ccccc23)NC(=O)[C@H](CC(=O)O)NC(=O)[C@H](Cc2ccc(O)cc2)NC(=O)[C@H](CC(N)=O)NC(=O)CSC[C@@H](C(=O)N[C@@H](C)C(N)=O)NC(=O)[C@H]([C@@H](C)O)NC(=O)[C@H](C(C)C)NC1=O [Compound 1241] ({CH2CO}-NYDWV[Bip][Orn][NMeA][dL][Orn]LVTCA-NH2; thioether N-14)
